The values below come from US20100056526A1, “HETEROMONOCYCLIC COMPOUND AND USE THEREOF” (Takeda Pharmaceutical Company Limited, priority 2006, published 2010).

The IC50 is the midpoint of a concentration-inhibition curve.

In one assay the target is T1, human AT1 receptor (Homo sapiens, UniProt P30556).
T1 construct: expressed in transfected cells; host or cells: CHO-K1
T1 sequence (P30556 1-359): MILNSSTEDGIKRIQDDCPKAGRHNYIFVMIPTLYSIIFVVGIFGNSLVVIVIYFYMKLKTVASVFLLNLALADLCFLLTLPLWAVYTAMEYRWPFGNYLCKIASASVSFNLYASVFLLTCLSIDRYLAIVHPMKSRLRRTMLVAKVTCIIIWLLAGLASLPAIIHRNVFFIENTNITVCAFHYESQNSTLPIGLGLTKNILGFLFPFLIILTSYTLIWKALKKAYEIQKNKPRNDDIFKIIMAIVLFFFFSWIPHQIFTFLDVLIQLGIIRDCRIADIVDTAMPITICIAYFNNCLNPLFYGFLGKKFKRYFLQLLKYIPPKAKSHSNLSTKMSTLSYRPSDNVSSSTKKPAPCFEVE
Nature of the assay: Binding assay using human AT1 receptor-expressing CHO-K1 cell membrane fraction ([125I]-angiotensin II). The note with it: 22.5 pM [125I]-angiotensin II, 9 μg AT1 membrane, 1 hr room temperature; read-out: AT1 receptor binding inhibitory action (IC50 (nM)). Put shortly: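 CHO-K1 membranes stably expressing AT1 (9 μg) incubated with 22.5 pM [125I]-angiotensin II and compound in 50 mM Tris pH 7.4, 10 mM MgCl2, with or without 0.3 mg/mL fatty acid-free BSA, 1 hr at room temperature. Bound radioactivity counted after GF/C filtration; nonspecific binding with 1 μM CV-11974; IC50 calculated.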

The next assay concerns the target T2, PPARγ (Homo sapiens, UniProt P37231).
T2 construct: expressed in transfected cells; host or cells: CHO-K1
T2 sequence (P37231 1-477 isoform P37231-2): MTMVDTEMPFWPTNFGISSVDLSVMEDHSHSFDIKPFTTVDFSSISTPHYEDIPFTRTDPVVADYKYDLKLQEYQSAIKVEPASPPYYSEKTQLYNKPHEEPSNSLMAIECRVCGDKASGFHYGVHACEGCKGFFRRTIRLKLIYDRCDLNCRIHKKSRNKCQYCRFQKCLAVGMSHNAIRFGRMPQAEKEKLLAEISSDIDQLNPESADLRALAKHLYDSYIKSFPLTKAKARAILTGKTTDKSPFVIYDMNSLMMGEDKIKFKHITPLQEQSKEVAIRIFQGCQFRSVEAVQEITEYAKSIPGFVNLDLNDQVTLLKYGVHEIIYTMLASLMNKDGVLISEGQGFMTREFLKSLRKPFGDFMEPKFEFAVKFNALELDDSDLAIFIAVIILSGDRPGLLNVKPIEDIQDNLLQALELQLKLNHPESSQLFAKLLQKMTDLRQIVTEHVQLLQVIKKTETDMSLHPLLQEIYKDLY
T2 sequence (P19793 1-462 partner): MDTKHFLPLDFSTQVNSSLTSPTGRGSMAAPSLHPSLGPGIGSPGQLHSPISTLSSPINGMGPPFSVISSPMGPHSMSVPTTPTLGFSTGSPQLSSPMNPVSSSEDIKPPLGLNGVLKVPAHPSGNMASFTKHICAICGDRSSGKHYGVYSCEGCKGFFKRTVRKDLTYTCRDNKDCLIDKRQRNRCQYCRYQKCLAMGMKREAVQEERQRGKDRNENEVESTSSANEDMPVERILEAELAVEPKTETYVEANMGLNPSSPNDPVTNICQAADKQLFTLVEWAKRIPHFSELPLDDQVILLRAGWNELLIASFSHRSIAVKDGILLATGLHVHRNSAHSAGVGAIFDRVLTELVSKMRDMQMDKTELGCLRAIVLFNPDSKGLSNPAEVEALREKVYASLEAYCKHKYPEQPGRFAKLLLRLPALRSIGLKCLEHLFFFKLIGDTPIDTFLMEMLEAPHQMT
Nature of the assay: Evaluation of PPARγ activating action (luciferase reporter in PPARγ:RXRα:4ERPP/CHO-K1 cells). The assay is classed as cell-based. The conditions noted are these: CHO-K1, 24 h, read-out: PPARγ activating action (activation % (10^−6 M)). The gist of the method: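 CHO-K1 cells stably carrying PPARγ, RXRα and a 4ERPP luciferase reporter were treated with compound for 1 day at 37 °C in F12 medium with 0.1% fatty acid-free BSA. Luciferase activity was read and scaled between no compound (0%) and reference agonist compound X at 1 μM (100%).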

The mark [1] stands for this setting: test compound 10^−6 M, luciferase activity relative to control compound X (1 μM) = 100%, non-administration group = 0%.

Molecules are shown by their SMILES. Structures can show the parent of a compound that is named as a salt. Where two headings read alike, the source gives them in different places.

As for `CCCc1nc(CC)n(-c2ccc(OC)cc2)c(=O)c1Cc1ccc(-c2ccccc2-c2noc(O)n2)cc1` [Example 313, 2-ethyl-3-(4-methoxyphenyl)-5-{[2′-(5-oxo-4,5-dihydro-1,2,4-oxadiazol-3-yl)biphenyl-4-yl]methyl}-6-propylpyrimidin-4(3H)-one potassium salt], the IC50 at human AT1 receptor was found to be 1.5 nM. Further, the activation at 1 µM at PPARγ turned out to be 31%.
As for `CCCc1nc(C)n(-c2ccc(OC3CCC3)c(F)c2)c(=O)c1Cc1ccc(-c2ccccc2-c2noc(=O)[nH]2)cc1` [Example 318, 3-[4-(cyclobutyloxy)-3-fluorophenyl]-2-methyl-5-{[2′-(5-oxo-4,5-dihydro-1,2,4-oxadiazol-3-yl)biphenyl-4-yl]methyl}-6-propylpyrimidin-4(3H)-one], at human AT1 receptor, the IC50 stood at 1.8 nM. The activation at 1 µM on PPARγ (setting [1]) was determined as 19.2%.
As to `CCCc1nc(C)n(-c2ccc(OC3CCCC3)cc2)c(=O)c1Cc1ccc(-c2ccccc2-c2noc(=O)[nH]2)cc1` [Example 319, 3-[4-(cyclopentyloxy)phenyl]-2-methyl-5-{[2′-(5-oxo-4,5-dihydro-1,2,4-oxadiazol-3-yl)biphenyl-4-yl]methyl}-6-propylpyrimidin-4(3H)-one], on human AT1 receptor, the IC50 was 1.8 nM. In addition, at PPARγ (setting [1]), the activation at 1 µM amounted to 17.2%.
The matching figures for `CCCc1nc(C)n(C=C(C)C)c(=O)c1Cc1ccc(-c2ccccc2-c2noc(=O)[nH]2)cc1` [Example 323, 2-methyl-3-(2-methylprop-1-en-1-yl)-5-{[2′-(5-oxo-4,5-dihydro-1,2,4-oxadiazol-3-yl)biphenyl-4-yl]methyl}-6-propylpyrimidin-4(3H)-one]: 2.1 nM and 20%.
On to `C#CCC(C)Oc1ccc(-n2c(C)nc(CCC)c(Cc3ccc(-c4ccccc4-c4noc(=O)[nH]4)cc3)c2=O)cc1` (stereo not drawn) [Example 324, 2-methyl-3-{4-[(1-methylbut-3-yn-1-yl)oxy]phenyl}-5-{[2′-(5-oxo-4,5-dihydro-1,2,4-oxadiazol-3-yl)biphenyl-4-yl]methyl}-6-propylpyrimidin-4(3H)-one], for which the IC50 on human AT1 receptor was determined as 1.7 nM. Besides, the activation at 1 µM at PPARγ (setting [1]) was 45.2%.
The matching figures for `CCCc1nc(C)n(-c2ccc(OC(C)C)nc2)c(=O)c1Cc1ccc(-c2ccccc2-c2noc(=O)[nH]2)cc1` [Example 325, 3-(6-isopropoxypyridin-3-yl)-2-methyl-5-{[2′-(5-oxo-4,5-dihydro-1,2,4-oxadiazol-3-yl)biphenyl-4-yl]methyl}-6-propylpyrimidin-4(3H)-one]: 3.4 nM and 30.2%.
For `CCCc1nc(C)n(-c2ccc(OC(C)C#N)cc2)c(=O)c1Cc1ccc(-c2ccccc2-c2noc(=O)[nH]2)cc1` (stereo not drawn) [Example 327, 2-{4-[2-methyl-6-oxo-5-{[2′-(5-oxo-4,5-dihydro-1,2,4-oxadiazol-3-yl)biphenyl-4-yl]methyl}-4-propylpyrimidin-1(6H)-yl]phenoxy}propanenitrile], in that order: 2.2 nM and 22.6%.
Consider `CCCc1nc(C)n(-c2ccc(O[C@@H]3C[C@@H](C)O[C@@H](C)C3)cc2)c(=O)c1Cc1ccc(-c2ccccc2-c2noc(=O)[nH]2)cc1F` [Example 338, 3-(4-{[(2R,4s,6S)-2,6-dimethyltetrahydro-2H-pyran-4-yl]oxy}phenyl)-5-{[3-fluoro-2′-(5-oxo-4,5-dihydro-1,2,4-oxadiazol-3-yl)biphenyl-4-yl]methyl}-2-methyl-6-propylpyrimidin-4(3H)-one], for which the IC50 at human AT1 receptor came out at 1.8 nM. Besides, on PPARγ (setting [1]), the activation at 1 µM amounted to 32.5%.
For `CCCc1nc(C)n(-c2ccc(OC3CCC(O)CC3)cc2)c(=O)c1Cc1ccc(-c2ccccc2-c2noc(O)n2)cc1F` (stereo not drawn) [Example 343, 5-{[3-fluoro-2′-(5-oxo-4,5-dihydro-1,2,4-oxadiazol-3-yl)biphenyl-4-yl]methyl}-3-{4-[(4-hydroxycyclohexyl)oxy]phenyl}-2-methyl-6-propylpyrimidin-4(3H)-one], in that order: 0.7 nM and 15.2%.
